Where two headings read alike, the source gives them in different places.
What was measured:
Assay type in all cases: cell-based
ABCA4 P1380L = target: T1, ABCA4 P1380L (Homo sapiens, UniProt P78363, P1380L); assay: A4 correction dose-response assay: ABCA4 P1380L HiBit protein expression; conditions: HEK-293 cells stably expressing HiBit-tagged ABCA4 P1380L, 24 h treatment, top concentration 30 μM
T1 construct: expressed in transfected cells
Method in brief: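 Cells transfected with HiBit-tagged human ABCA4 P1380L cDNA were treated for 24 h at 37°C with an eleven-point dilution series (top final 30 μM, 0.3% DMSO).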

ABCC6 WT = target: T2, ABCC6 WT (Homo sapiens, UniProt O95255); assay: ABCC6 WT assay: HiBit protein expression; conditions: HEK-293 cells transiently expressing HiBit-tagged ABCC6 WT; 24 h treatment; top concentration 20 μM; read-out: ABCC6 WT EC50, Emax
T2 construct: expressed in transfected cells; host or cells: HEK-293 (transient, Lipofectamine 2000)
T2 sequence (O95255 whole entry): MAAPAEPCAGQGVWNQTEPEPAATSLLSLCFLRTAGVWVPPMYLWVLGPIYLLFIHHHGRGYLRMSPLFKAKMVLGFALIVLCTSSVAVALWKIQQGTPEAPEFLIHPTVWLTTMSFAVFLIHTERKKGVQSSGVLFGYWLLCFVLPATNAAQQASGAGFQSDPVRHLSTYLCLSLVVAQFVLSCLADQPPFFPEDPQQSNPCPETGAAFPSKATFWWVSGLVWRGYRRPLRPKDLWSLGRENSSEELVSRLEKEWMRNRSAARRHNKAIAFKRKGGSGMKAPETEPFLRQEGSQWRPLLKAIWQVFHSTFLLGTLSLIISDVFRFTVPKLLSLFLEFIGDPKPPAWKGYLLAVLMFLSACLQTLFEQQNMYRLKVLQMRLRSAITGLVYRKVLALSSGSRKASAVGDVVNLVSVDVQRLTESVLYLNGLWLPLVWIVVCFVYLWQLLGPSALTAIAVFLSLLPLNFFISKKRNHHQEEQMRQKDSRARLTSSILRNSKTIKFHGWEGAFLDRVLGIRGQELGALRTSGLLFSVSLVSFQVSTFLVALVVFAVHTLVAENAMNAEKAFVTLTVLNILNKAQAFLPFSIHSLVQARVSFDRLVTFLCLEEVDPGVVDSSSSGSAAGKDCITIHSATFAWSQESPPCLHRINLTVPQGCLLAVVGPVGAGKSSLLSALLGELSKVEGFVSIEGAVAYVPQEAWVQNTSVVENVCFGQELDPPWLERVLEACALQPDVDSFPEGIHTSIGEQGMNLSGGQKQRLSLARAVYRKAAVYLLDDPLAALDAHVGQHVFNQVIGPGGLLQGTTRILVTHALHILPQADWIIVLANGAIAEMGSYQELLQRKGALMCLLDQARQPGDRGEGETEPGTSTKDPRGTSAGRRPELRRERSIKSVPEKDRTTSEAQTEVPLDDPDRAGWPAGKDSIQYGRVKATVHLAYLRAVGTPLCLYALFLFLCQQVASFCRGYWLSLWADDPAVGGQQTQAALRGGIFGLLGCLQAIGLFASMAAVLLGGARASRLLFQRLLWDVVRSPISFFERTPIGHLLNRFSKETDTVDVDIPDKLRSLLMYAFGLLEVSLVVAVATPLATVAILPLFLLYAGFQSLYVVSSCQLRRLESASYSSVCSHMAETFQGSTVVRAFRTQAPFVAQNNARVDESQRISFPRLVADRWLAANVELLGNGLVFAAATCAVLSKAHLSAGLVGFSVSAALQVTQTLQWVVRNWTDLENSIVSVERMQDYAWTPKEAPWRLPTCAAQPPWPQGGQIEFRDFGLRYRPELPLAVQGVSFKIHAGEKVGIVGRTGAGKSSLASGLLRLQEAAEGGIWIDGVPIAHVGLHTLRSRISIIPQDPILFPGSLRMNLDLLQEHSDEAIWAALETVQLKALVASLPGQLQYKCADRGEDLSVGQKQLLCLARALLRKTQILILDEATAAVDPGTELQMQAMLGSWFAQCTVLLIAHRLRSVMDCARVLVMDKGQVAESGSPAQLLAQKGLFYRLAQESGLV
Method in brief: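 HEK-293 cells transiently transfected with HiBit-tagged human ABCC6 WT cDNA, seeded 24 h post-transfection, treated 24 h at 37° C with ten 2-fold doses (top 20 μM final, 0.15% DMSO). HiBit lytic luminescence reports protein expression; Emax and EC50 derived.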

ABCB4 WT = target: T3, ABCB4 WT (Homo sapiens, UniProt P21439); assay: ABCB4 WT assay: HiBit protein expression; conditions: HEK-293 cells stably expressing HiBit-tagged ABCB4 WT; 24 h treatment; top concentration 30 μM; read-out: ABCB4 WT EC50, Emax
T3 construct: expressed in transfected cells
T3 sequence (P21439 whole entry): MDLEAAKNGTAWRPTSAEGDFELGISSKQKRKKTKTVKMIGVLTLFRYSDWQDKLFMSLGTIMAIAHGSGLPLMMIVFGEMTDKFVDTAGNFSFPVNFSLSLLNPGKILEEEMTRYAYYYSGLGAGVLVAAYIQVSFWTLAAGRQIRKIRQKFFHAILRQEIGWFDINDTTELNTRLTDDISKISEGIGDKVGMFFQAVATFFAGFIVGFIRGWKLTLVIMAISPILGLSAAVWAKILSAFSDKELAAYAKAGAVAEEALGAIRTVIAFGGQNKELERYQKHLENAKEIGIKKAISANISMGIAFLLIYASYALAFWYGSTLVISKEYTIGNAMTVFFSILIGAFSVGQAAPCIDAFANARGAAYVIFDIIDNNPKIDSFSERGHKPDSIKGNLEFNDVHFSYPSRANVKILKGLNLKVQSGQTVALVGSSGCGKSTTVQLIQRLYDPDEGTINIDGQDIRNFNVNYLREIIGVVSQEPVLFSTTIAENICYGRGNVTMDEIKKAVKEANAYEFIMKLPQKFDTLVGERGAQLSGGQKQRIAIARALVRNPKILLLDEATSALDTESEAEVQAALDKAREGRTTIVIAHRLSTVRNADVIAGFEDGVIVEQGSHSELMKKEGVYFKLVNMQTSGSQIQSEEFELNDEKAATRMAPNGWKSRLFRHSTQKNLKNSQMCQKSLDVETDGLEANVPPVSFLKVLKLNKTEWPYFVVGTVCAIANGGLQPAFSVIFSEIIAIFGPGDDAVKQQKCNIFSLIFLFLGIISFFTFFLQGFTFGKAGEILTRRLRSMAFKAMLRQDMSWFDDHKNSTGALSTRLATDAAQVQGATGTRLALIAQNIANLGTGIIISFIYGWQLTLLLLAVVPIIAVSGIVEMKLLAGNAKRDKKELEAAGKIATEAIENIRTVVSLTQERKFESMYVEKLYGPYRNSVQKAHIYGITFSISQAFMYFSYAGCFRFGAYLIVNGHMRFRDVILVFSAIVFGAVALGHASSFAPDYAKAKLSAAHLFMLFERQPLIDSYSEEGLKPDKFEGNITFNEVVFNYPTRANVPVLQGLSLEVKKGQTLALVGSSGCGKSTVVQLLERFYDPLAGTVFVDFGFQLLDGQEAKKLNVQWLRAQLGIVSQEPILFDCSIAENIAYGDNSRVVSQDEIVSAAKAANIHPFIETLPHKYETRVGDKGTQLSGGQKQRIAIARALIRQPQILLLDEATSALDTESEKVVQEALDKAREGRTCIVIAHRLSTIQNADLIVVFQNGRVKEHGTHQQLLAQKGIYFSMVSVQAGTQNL
Method in brief: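 HEK-293 cells stably expressing HiBit-tagged human ABCB4 WT, treated 24 h at 37 °C with 11-dose 3-fold dilutions, top final 30 μM in 0.3% DMSO. HiBit lytic reagent luminescence read after 1 h at 25 °C; Emax and EC50 derived.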

[1] = read-out: ABCA4 P1380L EC50, Emax

T1 sequence (P78363 whole entry P1380L): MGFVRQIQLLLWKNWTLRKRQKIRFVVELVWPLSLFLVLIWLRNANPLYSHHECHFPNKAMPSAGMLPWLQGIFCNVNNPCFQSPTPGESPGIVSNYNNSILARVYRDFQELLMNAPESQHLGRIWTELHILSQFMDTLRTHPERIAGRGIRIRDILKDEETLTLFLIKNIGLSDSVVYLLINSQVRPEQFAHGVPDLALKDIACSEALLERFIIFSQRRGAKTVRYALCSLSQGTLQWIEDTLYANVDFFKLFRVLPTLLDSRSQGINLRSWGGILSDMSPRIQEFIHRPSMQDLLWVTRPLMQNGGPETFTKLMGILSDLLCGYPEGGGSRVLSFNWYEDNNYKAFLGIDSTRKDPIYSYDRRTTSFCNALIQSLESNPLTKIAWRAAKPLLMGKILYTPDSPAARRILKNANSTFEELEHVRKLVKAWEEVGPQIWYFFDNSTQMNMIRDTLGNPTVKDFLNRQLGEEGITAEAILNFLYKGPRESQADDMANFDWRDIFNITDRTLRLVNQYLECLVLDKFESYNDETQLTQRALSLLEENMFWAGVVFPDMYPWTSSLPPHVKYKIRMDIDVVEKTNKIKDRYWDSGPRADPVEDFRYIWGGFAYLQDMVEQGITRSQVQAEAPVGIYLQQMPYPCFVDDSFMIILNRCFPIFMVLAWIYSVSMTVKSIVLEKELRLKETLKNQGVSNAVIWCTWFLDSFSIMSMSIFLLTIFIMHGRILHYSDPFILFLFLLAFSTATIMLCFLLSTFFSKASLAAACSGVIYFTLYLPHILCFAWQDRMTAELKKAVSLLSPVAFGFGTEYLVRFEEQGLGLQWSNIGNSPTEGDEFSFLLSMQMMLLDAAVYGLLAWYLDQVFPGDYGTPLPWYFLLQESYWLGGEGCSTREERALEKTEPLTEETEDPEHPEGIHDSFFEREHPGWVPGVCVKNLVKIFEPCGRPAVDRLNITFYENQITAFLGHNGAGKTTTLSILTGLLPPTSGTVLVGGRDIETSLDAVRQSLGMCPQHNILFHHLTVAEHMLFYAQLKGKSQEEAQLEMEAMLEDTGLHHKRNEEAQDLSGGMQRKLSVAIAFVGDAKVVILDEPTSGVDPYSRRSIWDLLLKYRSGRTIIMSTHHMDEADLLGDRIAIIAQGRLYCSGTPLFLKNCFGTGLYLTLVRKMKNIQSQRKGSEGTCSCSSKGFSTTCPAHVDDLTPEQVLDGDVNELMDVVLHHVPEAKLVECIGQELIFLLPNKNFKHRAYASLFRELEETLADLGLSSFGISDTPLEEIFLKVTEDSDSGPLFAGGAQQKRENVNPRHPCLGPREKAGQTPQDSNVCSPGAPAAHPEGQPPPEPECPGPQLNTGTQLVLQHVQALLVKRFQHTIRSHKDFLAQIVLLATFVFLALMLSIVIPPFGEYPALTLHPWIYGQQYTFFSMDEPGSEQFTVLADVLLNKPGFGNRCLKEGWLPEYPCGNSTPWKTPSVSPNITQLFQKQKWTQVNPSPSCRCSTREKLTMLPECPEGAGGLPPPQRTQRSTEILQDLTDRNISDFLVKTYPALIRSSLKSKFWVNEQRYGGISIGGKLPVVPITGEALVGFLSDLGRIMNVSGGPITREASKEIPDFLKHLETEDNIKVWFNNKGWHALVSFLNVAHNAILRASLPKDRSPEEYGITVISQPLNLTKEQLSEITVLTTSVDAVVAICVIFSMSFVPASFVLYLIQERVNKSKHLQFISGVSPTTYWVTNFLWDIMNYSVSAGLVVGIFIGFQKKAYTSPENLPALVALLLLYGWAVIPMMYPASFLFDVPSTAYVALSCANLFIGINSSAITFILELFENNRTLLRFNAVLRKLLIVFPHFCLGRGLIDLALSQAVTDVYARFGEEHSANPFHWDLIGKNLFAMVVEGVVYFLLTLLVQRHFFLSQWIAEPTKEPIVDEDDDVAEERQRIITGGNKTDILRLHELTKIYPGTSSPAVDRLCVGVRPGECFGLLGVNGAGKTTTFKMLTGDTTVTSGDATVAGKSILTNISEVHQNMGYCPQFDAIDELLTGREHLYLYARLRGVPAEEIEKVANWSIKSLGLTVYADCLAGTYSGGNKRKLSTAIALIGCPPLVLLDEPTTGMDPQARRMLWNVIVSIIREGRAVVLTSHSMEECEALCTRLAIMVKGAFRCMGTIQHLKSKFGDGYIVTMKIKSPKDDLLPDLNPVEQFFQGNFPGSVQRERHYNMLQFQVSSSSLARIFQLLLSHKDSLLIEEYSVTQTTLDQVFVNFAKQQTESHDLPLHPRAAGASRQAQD

Row | Compound | EC50 (ABCA4 P1380L; [1]) [µM] | EC50 (ABCC6 WT) [µM] | EC50 (ABCB4 WT) [µM] | EC50 (ABCA4 P1380L; ABCA4 P1380L EC50, Emax) [µM]
1 | Cc1cc(C)c(Oc2nc(N3CC4CC3CN4C(=O)C3CC3)ccc2NS(C)(=O)=O)c(C)c1 (single isomer, unassigned) [Compound I-18] | 10 to 25 | 1 to 10 | ≥ 25 | 
2 | Cc1cc(C)c(Oc2nc(N3CC4CC3CN4C(=O)C3CC3)ccc2NS(C)(=O)=O)c(C)c1 (single isomer, unassigned) [Compound I-19] | > 25 | ≥ 25 | ≥ 25 | 
3 | Cc1cc(C)c(Oc2nc(N3CCC(C#N)C3)ccc2NS(C)(=O)=O)c(C)c1 (single isomer, unassigned) [Compound I-261] | 10 to 25 | 1 to 10 | 1 to 10 | 
4 | Cc1cc(C)c(Oc2nc(N3CCC(C#N)C3)ccc2NS(C)(=O)=O)c(C)c1 (single isomer, unassigned) [Compound I-262] | 1 to 10 | 1 to 10 | 1 to 10 | 
5 | Cc1cc(C)c(Oc2nc(N3CCN(C(=O)C4CC4)CC3)ccc2NS(C)(=O)=O)c(C2CC2)n1 [Compound I-20] | > 25 | 1 to 10 | ≥ 25 | 
6 | Cc1cc(C)c(Oc2nc(N3CCn4c(C)nnc4C3)ccc2NS(C)(=O)=O)c(C)c1 [Compound I-21] | > 25 | 1 to 10 | < 25 | 
7 | Cc1cc(C)c(Oc2nc(N3CC4CC(C3)N4C(=O)C3CC3)ccc2NS(C)(=O)=O)c(C)c1 [Compound I-22] | 1 to 10 | 1 to 10 | 1 to 10 | 
8 | Cc1cc(C)c(Oc2nc(N3CCN(C(=O)C4COC4)CC3)ccc2NS(C)(=O)=O)c(C)c1 [Compound I-23] | 10 to 25 | 10 to 25 | 10 to 25 | 
9 | Cc1cc(C)c(Oc2nc(N3CCN(C(=O)C4CCC4)CC3)ccc2NS(C)(=O)=O)c(C)c1 [Compound I-24] | 1 to 10 | < 1 | < 1 | 
10 | Cc1cc(C)c(Oc2nc(N3CCC4(CN(C(=O)C5CC5)C4)C3)ccc2NS(C)(=O)=O)c(C)c1 [Compound I-25] | > 25 | 1 to 10 | 1 to 10 | 
11 | Cc1cc(C)c(Oc2nc(N3CCN(S(C)(=O)=O)CC3)ccc2NS(C)(=O)=O)c(C)c1 [Compound I-26] | > 25 | ≥ 25 | 1 to 10 | 
12 | CNC(=O)N1CCN(c2ccc(NS(C)(=O)=O)c(Oc3c(C)cc(C)cc3C)n2)CC1 [Compound I-27] | 1 to 10 | 10 to 25 | 10 to 25 | 
13 | Cc1cc(C2CC2)nc(C)c1Oc1nc(N2CCN(C(=O)C3CC3)CC2)ccc1NS(C)(=O)=O [Compound I-28] | 1 to 10 | ≥ 25 | 1 to 10 | 
14 | Cc1cc(C)c(Oc2nc(-c3cncc(Cl)c3)ccc2NS(=O)(=O)C(C)C)c(C)c1 [Compound I-29] | > 25 | < 1 | ≥ 25 | 
15 | Cc1cc(C)c(Oc2nc(N3CCn4c(cnc4C)C3)ccc2NS(C)(=O)=O)c(C)c1 [Compound I-30] | < 1 | 1 to 10 | 1 to 10 | 
16 | Cc1cc(C)c(Oc2nc(N3CC4(CCN(C(=O)C5CC5)C4)C3)ccc2NS(C)(=O)=O)c(C)c1 [Compound I-31] | > 25 | 1 to 10 | ≥ 25 | 
17 | Cc1cc(C)c(Oc2nc(N3CCN(C(=O)OC(C)C)CC3)ccc2NS(C)(=O)=O)c(C)c1 [Compound I-32] | 1 to 10 | 1 to 10 | ≥ 25 | 
18 | Cc1cc(C)c(Oc2nc(N3CCN(C(=O)N(C)C)CC3)ccc2NS(C)(=O)=O)c(C)c1 [Compound I-33] | > 25 | 1 to 10 | 10 to 25 | 
19 | Cc1cc(C)c(Oc2nc(N3CCN(C(=O)C(C)(C)C)CC3)ccc2NS(C)(=O)=O)c(C)c1 [Compound I-34] | 10 to 25 | 1 to 10 | 1 to 10 | 
20 | Cc1cc(C)c(Oc2nc(N3C4CC3CN(C(=O)C3CC3)C4)ccc2NS(C)(=O)=O)c(C)c1 [Compound I-35] | > 25 | ≥ 25 | ≥ 25 | 
21 | Cc1cc(C)c(Oc2nc(-c3cnc(C#N)c(Cl)c3)ccc2NS(C)(=O)=O)c(C)c1 [Compound I-36] | < 1 | < 1 | ≥ 25 | 
22 | Cc1cc(C2CC2)nc(C)c1Oc1nc(-c2cncc(Cl)c2)ccc1NS(C)(=O)=O [Compound I-37] | < 1 | < 1 | < 1 | 
23 | Cc1cc(C)c(Oc2nc(N3CC4(CN(C(=O)C5CC5)C4)C3)ccc2NS(C)(=O)=O)c(C)c1 [Compound I-38] | > 25 | ≥ 25 | ≥ 25 | 
24 | Cc1cc(C)c(Oc2nc(-c3cncc(C#N)c3)ccc2NS(C)(=O)=O)c(C)c1 [Compound I-39] | < 1 | < 1 | < 1 | 

Row | Compound | EC50 (ABCA4 P1380L; [1]) [µM] | EC50 (ABCC6 WT) [µM] | EC50 (ABCB4 WT) [µM] | EC50 (ABCA4 P1380L; ABCA4 P1380L EC50, Emax) [µM]
25 | Cc1cc(C)c(Oc2nc(-c3cncc(Cl)c3)ccc2NS(C)(=O)=O)c(C2CC2)n1 [Compound I-40] | < 1 | < 1 | < 1 | 
26 | Cc1cc(C)c(Oc2nc(-c3cncc(Cl)c3)ccc2NS(=O)(=O)C2COC2)c(C)c1 [Compound I-41] | < 1 | < 1 | ≥ 25 | 
27 | Cc1cc(C)c(Oc2nc(-c3cncc(Cl)c3)ccc2NS(=O)(=O)C2CC2)c(C)n1 [Compound I-238] | 1 to 10 | < 1 | < 25 | 
28 | Cc1cc(C)c(Oc2nc(-c3ccnc(C#N)c3)ccc2NS(C)(=O)=O)c(C)n1 [Compound I-239] | < 1 | < 1 | < 25 | 
29 | Cc1cc(C(F)(F)F)nc(C)c1Oc1nc(-c2cncc(C#N)c2)ccc1NS(C)(=O)=O [Compound I-240] | < 25 | < 1 | < 1 | 
30 | Cc1cc(C)c(Oc2nc(-c3cccc(C#N)n3)ccc2NS(C)(=O)=O)c(C)n1 [Compound I-241] | > 25 | 10 to 25 | 10 to 25 | 
31 | CCCS(=O)(=O)Nc1ccc(-c2cncc(C#N)c2)nc1Oc1c(C)cc(C)nc1C [Compound I-242] | 1 to 10 | < 1 | 1 to 10 | 
32 | Cc1cc(C)c(Oc2nc(-c3cncc(C#N)c3)ccc2NS(=O)(=O)C2CCC2)c(C)n1 [Compound I-243] | < 1 | < 1 | < 1 | 
33 | Cc1cc(C)c(Oc2nc(N3CCC(C#N)CC3)ccc2NS(C)(=O)=O)c(C)c1 [Compound I-244] | 10 to 25 | 1 to 10 | ≥ 25 | 
34 | Cc1cc(C)c(Oc2nc(-c3cncc(C#N)c3)ccc2S(=N)(=O)C2CC2)c(C)c1 (stereo not drawn) [Compound I-245] | 1 to 10 | < 1 | 1 to 10 | 
35 | Cc1cc(C)c(Oc2nc(-c3cncc(Cl)c3)ncc2NS(C)(=O)=O)c(C)n1 [Compound I-246] | < 1 | < 1 | < 25 | 
36 | CCS(=O)(=O)Nc1ccc(-c2cncc(C#N)c2)nc1Oc1c(C)cc(C)nc1C [Compound I-247] | < 1 | < 1 | < 1 | 
37 | Cc1cc(C)c(Oc2nc(-c3cncc(C#N)c3)ccc2S(=N)(=O)C2CC2)c(C)n1 (stereo not drawn) [Compound I-248] | 1 to 10 | 1 to 10 | 1 to 10 | 
38 | Cc1cc(C)c(Oc2nc(-c3cncc(C#N)c3)ccc2S(C)(=N)=O)c(C)n1 (stereo not drawn) [Compound I-249] | > 25 | ≥ 25 | < 25 | 
39 | Cc1cnc(Oc2nc(-c3cncc(C#N)c3)ccc2NS(C)(=O)=O)c(C)c1 [Compound I-250] | > 25 | ≥ 25 | ≥ 25 | 
40 | Cc1cc(C2CC2)nc(C)c1Oc1nc(-c2cncc(C#N)c2)ccc1S(C)(=N)=O (stereo not drawn) [Compound I-251] | > 25 | 10 to 25 | ≥ 25 | 
41 | Cc1cc(C2CC2)nc(C)c1Oc1nc(-c2cncc(C#N)c2)ccc1NS(=O)(=O)C1CCC1 [Compound I-252] | < 1 | 1 to 10 | ≥ 25 | 
42 | Cc1cc(C)c(Oc2nc(-c3cncc(C#N)c3)ccc2NS(=O)(=O)C2CCC2)c(C)c1 [Compound I-253] | < 25 | 1 to 10 | 1 to 10 | 
43 | Cc1cc(C2CC2)nc(C)c1Oc1nc(-n2cnc(C#N)c2)ccc1NS(C)(=O)=O [Compound I-254] | < 1 | < 1 | < 25 | 
44 | Cc1cc(C2CC2)nc(C)c1Oc1nc(-n2ccc(C#N)n2)ccc1NS(C)(=O)=O [Compound I-255] | > 25 | 1 to 10 | ≥ 25 | 
45 | Cc1cc(C2CC2)nc(C)c1Oc1nc(-n2cc(C#N)cn2)ccc1NS(C)(=O)=O [Compound I-256] | > 25 | < 1 | < 1 | 
46 | Cc1cc(C)c(Oc2nc(-n3ccc(C#N)n3)ccc2NS(C)(=O)=O)c(C)c1 [Compound I-257] | < 25 | 1 to 10 | ≥ 25 | 
47 | Cc1cc(C)c(Oc2nc(-c3cncc(C#N)c3)ccc2S(N)(=O)=O)c(C)n1 [Compound I-258] |  | 10 to 25 | < 25 | 1 to 10
48 | Cc1cc(C)c(Oc2nc(-c3cncc(C#N)c3)cnc2NS(C)(=O)=O)c(C)n1 [Compound I-259] | < 25 | 1 to 10 | ≥ 25 | 

Source: US20250228835A1, “PYRIDINYLOXYPYRIDINES AND RELATED COMPOUNDS AND THEIR USE IN TREATING MEDICAL CONDITIONS” (Rectify Pharmaceuticals, Inc., priority 2024, published 2025)
